For series [1], the system named is HepG2 and primary rat hepatocytes. The series can be described thus: Release of Annexin V-positive MPs from hepatocytes (flow cytometry). It is filed as cell-based, human (HepG2); rat (primary hepatocytes). Conditions: hepatocytes incubated with 0.25 mM FFA up to 24 h, vs controls (FIGS. 2D, 2F, 9). As to the method:
For microparticles (MPs) isolation, HepG2 and primary rat hepatocytes were seeded onto a 100 mm dish and cultured until reaching 80-85% of confluence. Cells were incubated with 0.25 mM of palmitic, stearic, oleic or linoleic acid (FFA) in serum-free DMEM, supplemented with 1.1% penicillin and streptomycin, 1% endotoxin-free bovine serum albumin (BSA), for up to 24 h. […] The uptake of FFAs from hepatocytes was evaluated by Oil red-O staining kit (Cayman, Ann Arbor, Mich., USA) according to the manufacturer instruction. To determine the effect of caspase 3 activity, hepatocytes were treated with a selective caspase 3 inhibitor, Ac-DEVD-CHO (BD Pharmingen, Franklin Lakes, N.J., US). Control cells were incubated with the same serum-free media in association to the vehicle that was used to dissolve the FFAs. After 24 h, the supernatant were collected and centrifuged twice at 3,000 rpm for 15 minutes to remove cell debris and aggregates. The supernatant was then transferred to new tubes and ultracentrifuged at 100,000 g for 90 minutes at 10° C., to avoid contamination of exosomes.
The supernatant was collected in new tubes and used as a MP-free control and the pelleted MPs were resuspended in 200 μl of PBS for flow cytometry or in 500 μl of EGM-2 growth medium for subsequent in vitro studies. The concentration of microparticles μg/mL was determined by the BCA protein assay and different concentrations of MPs (50, 125, 250 and 500 μg/mL) were used to perform the dose-dependent angiogenesis in vitro assays. For selected purposes, in particular for the characterization analyses, crude MPs were purified by 10-70% sucrose gradient ultracentrifugation at 150,000 g for 18 h at 10° C., collected as fractions in new tubes. […]
Flow cytometry analyses for microparticles (or endothelial cells) detection were performed by using BD LSRII Flow Cytometer System (BD Biosciences, San Jose, Calif., USA) and the data were analyzed using FlowJo software (TreeStar Inc., Ashland, Oreg., USA). […]
For orientation: Flow cytometry measures light scatter and fluorescence of single cells or particles in a stream.

The subject of series [2] is HUVECs. The series can be described thus: HUVEC migration (Boyden's chamber chemotaxis, wound healing). Particulars: supernatants from hepatocytes incubated with FFA up to 24 h; VEGF-A positive control. It is filed as cell-based, human. The protocol: In vitro migration studies have been performed by using human umbilical cell endothelial cells (HUVECs). Wound healing assay was performed to analyze chemokinesis (non-oriented migration) by using collagen-coated 6-well culture plate, where a silicon elastomer (PDMS) strip was placed vertically to the bottom of every well to create the artificial wound. HUVECs were plated and grown until reaching the complete confluence. HUVECs were treated with EBM-2 supplemented with 100 ng/mL of VEGF (Peprotech, Rocky Hill, N.J., USA), hepatocytes-derived MPs, MP-free supernatant or supernatant collected after 24 hours of treatment with FFAs. The strips were removed carefully and migration of cells was detected by a confocal microscope, capturing one picture per field every 10 minutes for 48 hours. Mitomycin (1 μg/ml) was used to inhibit cell proliferation during wound healing assay. Data were analyzed by using Wimscratch software (Wimasis, Munich, Germany) in order to get the total cell-covered area (pixel). Boyden's chamber assay was performed to analyze chemotaxis (oriented migration) by using cell culture inserts 8 μm pore size (Millipore, Billerica, Mass., USA) and 24-well plate. Each well was filled with 500 μl of serum free EBM-2 media in presence or absence of the following chemoattractants: 100 ng/mL VEGF; hepatocytes-derived MPs; MP-free supernatant or conditioned supernatant. The inserts were placed on top of each well and 150 μl of cell suspension (5×10^4 cells) was added. Plates were incubated overnight at 37° C., and then the filters were removed and stained with Vectashield mounting medium with 4′,6-diamino-2-phenylindole (DAPI) (Vector Labs, Burlingame, Calif., USA).
Migrated cells were detected with a fluorescence microscope and number per field of their nuclei was counted. For the ex vivo studies, PFP isolated from different groups of mice (chow, HF/HCarb, MCD fed mice and mice injected with control siRNA, VNN1 siRNA or PBS as vehicle) were ultracentrifuged at 100,000 g for 1 h at 10° C. to pellet the blood MPs.

For series [3], the system named is HUVECs. The series can be described thus: HUVEC tube formation assay. It is filed as cell-based, human. Particulars: supernatants from HepG2/primary rat hepatocytes incubated with FFA up to 24 h; VEGF-A positive control. The protocol: HUVECs (0.5-1×10^5 cells per well) were seeded onto a coated 24-well plate culture dishes with 200 μl/cm2 (thick gel method) of Matrigel (BD, Franklin Lakes, N.J., USA) and cultured in EBM-2 basal medium supplemented with 1.1% of streptomycin and penicillin in the presence of 100 ng/mL of VEGF (Peprotech, Rocky Hill, N.J., USA), hepatocytes-derived MPs, MP-free supernatant or conditioned supernatant collected after 24 hours of treatment with FFAs. In selective studies, a specific inhibitor for RhoA-ROCK (Y27632, 10 μM) was used in association with MPs in the treatment of endothelial cells. For the ex vivo studies, PFP isolated from different groups of mice (chow, HF/HCarb, MCD fed mice and mice injected with control RNA, VNN1 siRNA or PBS as vehicle) were ultracentrifuged at 100,000 g for 1 h at 10° C. to pellet the blood MPs. HUVECs were treated with MPs (or blood pure MPs) and incubated for 5 h at 37° C. Tube formation was investigated by using an inverted microscope at 4× magnification and images were captured. Tube formation image analysis was assessed by using Wimtube software (Wimasis, Munich, Germany) and the values referred to total tube length (pixel) were used for statistical and data analysis.

`CCCCCCCCCCCCCCCC(=O)O` [palmitic acid]: the “Annexin V positive MPs in supernatants (MP formation/release)” value in series [1] is “marked increase”. Also, in the series with HUVECs [2], the “endothelial cell oriented (chemotaxis) and non-oriented migration induced by cell-free supernatants of FFA-treated hepatocytes” value is given as “marked increase”. Besides, in the series on HUVECs [3], the “tube formation induced by cell-free supernatants of FFA-treated hepatocytes” value is “marked increase”.

Turning to `CCCCCCCC/C=C\CCCCCCCC(=O)O` [oleic acid], the “Annexin V positive MPs in supernatants (MP formation/release)” value in series [1] is “failed to induce any increase”. The “endothelial cell oriented (chemotaxis) and non-oriented migration induced by cell-free supernatants of FFA-treated hepatocytes” value in the series on HUVECs [2] is reported as “not”. In addition, the “tube formation induced by cell-free supernatants of FFA-treated hepatocytes” value in the series with HUVECs [3] is given as “not”.

These data come from patent US20150247149A1, “Detecting and Treating Liver Damage” (The Regents of the University of California, priority 2012, published 2015).
